The values that follow are results of earlier work, collected in US20260048144A1, “SECRETED RNA THERAPEUTICS FOR NUCLEAR DELIVERY” (H. Lee Moffitt Cancer Center and Research Institute, Inc., priority 2022, published 2026).

For data set [1] the following is noted: tested in humans; Di Stasi et al. 2011.
For data set [2] the following is noted: infused in thousands of lymphoma and rheumatoid arthritis patients.

With `CC[C@H](C(=O)N1CCCC[C@H]1C(=O)O[C@H](CCc1ccc(OC)c(OC)c1)c1cccc(OCC(=O)NCCNC(=O)COc2cccc([C@@H](CCc3ccc(OC)c(OC)c3)OC(=O)[C@@H]3CCCCN3C(=O)[C@@H](CC)c3cc(OC)c(OC)c(OC)c3)c2)c1)c1cc(OC)c(OC)c(OC)c1` [AP1903], in data set [1], the “safety / adverse effects in humans” value is reported as “deemed safe without adverse effects”.
As for Rituximab, the side effect profile entry in data set [2] was “favorable side effect profile”.
